Measured values as given in paper PMC12670405, “Second-Generation AURKA-Targeting PROTACs: Structural Optimization toward in Vivo Degradation in Neuroblastoma” (Journal of Medicinal Chemistry, 2025).

How the values were obtained:
Test in all cases: KINOMEscan scanMAX
Format in all cases: binding
Settings in all cases: read-out: Percent Control
[1] = molecular target: T1, ABL1(H396P)-nonphosphorylated (Homo sapiens, UniProt P00519, H396P)
T1 construct: purchased Eurofins Discovery (DiscoverX KINOMEscan scanMAX)
Method: (§1) The kinome-wide binding assay was performed by Eurofins Discovery using the scanMAX screening platform. More information can be found on the Eurofins Discovery Web site.

CDK4-cyclinD1 = molecular target: T2, CDK4-cyclinD1 (Homo sapiens, UniProt P11802)
T2 construct: purchased Eurofins Discovery (DiscoverX KINOMEscan scanMAX)
Method: as §1

NEK5 = molecular target: T3, NEK5 (Homo sapiens, UniProt Q6P3R8)
T3 construct: purchased Eurofins Discovery (DiscoverX KINOMEscan scanMAX)
Method: as §1

ULK3 = molecular target: T4, ULK3 (Homo sapiens, UniProt Q6PHR2)
T4 construct: purchased Eurofins Discovery (DiscoverX KINOMEscan scanMAX)
Method: as §1

CAMK1B = molecular target: T5, CAMK1B (Homo sapiens, UniProt Q6P2M8)
T5 construct: purchased Eurofins Discovery (DiscoverX KINOMEscan scanMAX)
Method: as §1

AAK1 = molecular target: T6, AAK1 (Homo sapiens, UniProt Q2M2I8)
T6 construct: purchased Eurofins Discovery (DiscoverX KINOMEscan scanMAX)
Method: as §1

CHEK2 = molecular target: T7, CHEK2 (Homo sapiens, UniProt O96017)
T7 construct: purchased Eurofins Discovery (DiscoverX KINOMEscan scanMAX)
Method: as §1

CSF1R = molecular target: T8, CSF1R (Homo sapiens, UniProt P07333)
T8 construct: purchased Eurofins Discovery (DiscoverX KINOMEscan scanMAX)
Method: as §1

KIT-autoinhibited = molecular target: T9, KIT-autoinhibited (Homo sapiens, UniProt P10721)
T9 construct: purchased Eurofins Discovery (DiscoverX KINOMEscan scanMAX)
Method: as §1

ERK2 = molecular target: T10, ERK2 (Homo sapiens, UniProt P28482)
T10 construct: purchased Eurofins Discovery (DiscoverX KINOMEscan scanMAX)
Method: as §1

NEK4 = molecular target: T11, NEK4 (Homo sapiens, UniProt P51957)
T11 construct: purchased Eurofins Discovery (DiscoverX KINOMEscan scanMAX)
Method: as §1

MET(Y1235D) = molecular target: T12, MET(Y1235D) (Homo sapiens, UniProt P08581, Y1235D)
T12 construct: purchased Eurofins Discovery (DiscoverX KINOMEscan scanMAX)
Method: as §1

MERTK = molecular target: T13, MERTK (Homo sapiens, UniProt Q12866)
T13 construct: purchased Eurofins Discovery (DiscoverX KINOMEscan scanMAX)
Method: as §1

ACVR2A = molecular target: T14, ACVR2A (Homo sapiens, UniProt P27037)
T14 construct: purchased Eurofins Discovery (DiscoverX KINOMEscan scanMAX)
Method: as §1

PRKCI = molecular target: T15, PRKCI (Homo sapiens, UniProt P41743)
T15 construct: purchased Eurofins Discovery (DiscoverX KINOMEscan scanMAX)
Method: as §1

PIK3CA(E545K) = molecular target: T16, PIK3CA(E545K) (Homo sapiens, UniProt P42336, E545K)
T16 construct: purchased Eurofins Discovery (DiscoverX KINOMEscan scanMAX)
Method: as §1

LKB1 = molecular target: T17, LKB1 (Homo sapiens, UniProt Q15831)
T17 construct: purchased Eurofins Discovery (DiscoverX KINOMEscan scanMAX)
Method: as §1

PIK3CA(Q546K) = molecular target: T18, PIK3CA(Q546K) (Homo sapiens, UniProt P42336, Q546K)
T18 construct: purchased Eurofins Discovery (DiscoverX KINOMEscan scanMAX)
Method: as §1

PAK6 = molecular target: T19, PAK6 (Homo sapiens, UniProt Q9NQU5)
T19 construct: purchased Eurofins Discovery (DiscoverX KINOMEscan scanMAX)
Method: as §1

CSNK2A1 = molecular target: T20, CSNK2A1 (Homo sapiens, UniProt P68400)
T20 construct: purchased Eurofins Discovery (DiscoverX KINOMEscan scanMAX)
Method: as §1

TGFBR1 = molecular target: T21, TGFBR1 (Homo sapiens, UniProt P36897)
T21 construct: purchased Eurofins Discovery (DiscoverX KINOMEscan scanMAX)
Method: as §1

MARK2 = molecular target: T22, MARK2 (Homo sapiens, UniProt Q7KZI7)
T22 construct: purchased Eurofins Discovery (DiscoverX KINOMEscan scanMAX)
Method: as §1

KIT(D816V) = molecular target: T23, KIT(D816V) (Homo sapiens, UniProt P10721, D816V)
T23 construct: purchased Eurofins Discovery (DiscoverX KINOMEscan scanMAX)
Method: as §1

ROCK2 = molecular target: T24, ROCK2 (Homo sapiens, UniProt O75116)
T24 construct: purchased Eurofins Discovery (DiscoverX KINOMEscan scanMAX)
Method: as §1

ACVRL1 = molecular target: T25, ACVRL1 (Homo sapiens, UniProt P37023)
T25 construct: purchased Eurofins Discovery (DiscoverX KINOMEscan scanMAX)
Method: as §1

MST3 = molecular target: T26, MST3 (Homo sapiens, UniProt Q9Y6E0)
T26 construct: purchased Eurofins Discovery (DiscoverX KINOMEscan scanMAX)
Method: as §1

STK33 = molecular target: T27, STK33 (Homo sapiens, UniProt Q9BYT3)
T27 construct: purchased Eurofins Discovery (DiscoverX KINOMEscan scanMAX)
Method: as §1

NIK = molecular target: T28, NIK (Homo sapiens, UniProt Q99558)
T28 construct: purchased Eurofins Discovery (DiscoverX KINOMEscan scanMAX)
Method: as §1

RIPK1 = molecular target: T29, RIPK1 (Homo sapiens, UniProt Q13546)
T29 construct: purchased Eurofins Discovery (DiscoverX KINOMEscan scanMAX)
Method: as §1

BRAF(V600E) = molecular target: T30, BRAF(V600E) (Homo sapiens, UniProt P15056, V600E)
T30 construct: purchased Eurofins Discovery (DiscoverX KINOMEscan scanMAX)
Method: as §1

ZAK = molecular target: T31, ZAK (Homo sapiens, UniProt Q9NYL2)
T31 construct: purchased Eurofins Discovery (DiscoverX KINOMEscan scanMAX)
Method: as §1

YSK4 = molecular target: T32, YSK4 (Homo sapiens, UniProt Q56UN5)
T32 construct: purchased Eurofins Discovery (DiscoverX KINOMEscan scanMAX)
Method: as §1

PHKG1 = molecular target: T33, PHKG1 (Homo sapiens, UniProt Q16816)
T33 construct: purchased Eurofins Discovery (DiscoverX KINOMEscan scanMAX)
Method: as §1

CSNK1G2 = molecular target: T34, CSNK1G2 (Homo sapiens, UniProt P78368)
T34 construct: purchased Eurofins Discovery (DiscoverX KINOMEscan scanMAX)
Method: as §1

T5 sequence (Q6P2M8 whole entry): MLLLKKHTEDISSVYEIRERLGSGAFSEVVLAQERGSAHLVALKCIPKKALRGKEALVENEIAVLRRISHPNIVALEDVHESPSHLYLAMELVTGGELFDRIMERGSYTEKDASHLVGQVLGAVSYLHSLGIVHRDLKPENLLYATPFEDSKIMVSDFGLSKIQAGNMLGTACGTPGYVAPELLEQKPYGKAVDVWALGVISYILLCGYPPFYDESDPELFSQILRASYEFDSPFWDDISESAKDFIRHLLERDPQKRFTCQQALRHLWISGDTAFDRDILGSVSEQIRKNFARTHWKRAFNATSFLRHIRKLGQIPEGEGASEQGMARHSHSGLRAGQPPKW
T17 sequence (Q15831 whole entry): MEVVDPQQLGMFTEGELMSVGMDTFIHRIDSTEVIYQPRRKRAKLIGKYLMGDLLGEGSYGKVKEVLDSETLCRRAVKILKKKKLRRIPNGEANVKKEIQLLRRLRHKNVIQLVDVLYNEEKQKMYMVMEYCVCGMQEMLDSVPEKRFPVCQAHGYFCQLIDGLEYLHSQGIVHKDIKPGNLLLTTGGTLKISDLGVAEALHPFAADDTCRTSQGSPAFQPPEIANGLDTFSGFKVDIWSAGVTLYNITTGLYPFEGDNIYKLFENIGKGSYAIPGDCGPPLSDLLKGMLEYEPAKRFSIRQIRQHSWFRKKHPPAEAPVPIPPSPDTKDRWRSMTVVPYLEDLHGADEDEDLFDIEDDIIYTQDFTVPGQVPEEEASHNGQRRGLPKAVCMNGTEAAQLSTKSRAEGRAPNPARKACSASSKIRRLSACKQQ
T2 sequence (P11802 whole entry): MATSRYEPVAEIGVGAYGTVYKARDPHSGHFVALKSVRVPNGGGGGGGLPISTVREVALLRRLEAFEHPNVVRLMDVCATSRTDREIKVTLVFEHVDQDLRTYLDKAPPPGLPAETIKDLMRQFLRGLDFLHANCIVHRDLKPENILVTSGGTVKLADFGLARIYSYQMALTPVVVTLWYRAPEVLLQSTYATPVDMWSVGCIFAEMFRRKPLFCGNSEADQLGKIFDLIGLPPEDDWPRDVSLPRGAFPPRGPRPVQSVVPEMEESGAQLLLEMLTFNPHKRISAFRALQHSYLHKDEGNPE
T2 sequence (P24385 whole entry partner): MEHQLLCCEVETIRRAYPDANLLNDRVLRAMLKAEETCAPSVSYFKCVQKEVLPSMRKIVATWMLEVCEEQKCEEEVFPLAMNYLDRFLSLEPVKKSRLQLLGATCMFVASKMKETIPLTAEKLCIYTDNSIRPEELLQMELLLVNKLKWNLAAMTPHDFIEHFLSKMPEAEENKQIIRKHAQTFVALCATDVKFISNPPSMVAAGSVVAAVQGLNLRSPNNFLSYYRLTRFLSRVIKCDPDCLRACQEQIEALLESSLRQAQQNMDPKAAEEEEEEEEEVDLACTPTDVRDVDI
T3 sequence (Q6P3R8 whole entry): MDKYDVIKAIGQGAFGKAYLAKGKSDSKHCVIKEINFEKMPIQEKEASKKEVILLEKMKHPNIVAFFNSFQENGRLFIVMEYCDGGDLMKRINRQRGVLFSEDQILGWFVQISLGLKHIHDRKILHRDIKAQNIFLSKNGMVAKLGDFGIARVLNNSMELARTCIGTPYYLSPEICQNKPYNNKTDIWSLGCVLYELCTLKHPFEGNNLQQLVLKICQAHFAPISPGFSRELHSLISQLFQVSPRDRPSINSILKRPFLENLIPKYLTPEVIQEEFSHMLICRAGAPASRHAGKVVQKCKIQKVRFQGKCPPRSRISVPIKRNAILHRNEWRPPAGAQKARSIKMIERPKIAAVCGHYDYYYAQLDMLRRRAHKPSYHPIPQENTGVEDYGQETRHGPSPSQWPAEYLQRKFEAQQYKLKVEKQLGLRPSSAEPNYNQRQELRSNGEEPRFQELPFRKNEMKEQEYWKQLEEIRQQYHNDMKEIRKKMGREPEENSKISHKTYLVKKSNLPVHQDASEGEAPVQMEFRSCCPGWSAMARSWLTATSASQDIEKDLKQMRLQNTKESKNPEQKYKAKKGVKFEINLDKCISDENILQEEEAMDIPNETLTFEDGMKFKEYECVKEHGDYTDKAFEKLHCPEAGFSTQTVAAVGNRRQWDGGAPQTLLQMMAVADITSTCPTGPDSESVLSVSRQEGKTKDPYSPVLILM
T30 sequence (P15056 whole entry V600E): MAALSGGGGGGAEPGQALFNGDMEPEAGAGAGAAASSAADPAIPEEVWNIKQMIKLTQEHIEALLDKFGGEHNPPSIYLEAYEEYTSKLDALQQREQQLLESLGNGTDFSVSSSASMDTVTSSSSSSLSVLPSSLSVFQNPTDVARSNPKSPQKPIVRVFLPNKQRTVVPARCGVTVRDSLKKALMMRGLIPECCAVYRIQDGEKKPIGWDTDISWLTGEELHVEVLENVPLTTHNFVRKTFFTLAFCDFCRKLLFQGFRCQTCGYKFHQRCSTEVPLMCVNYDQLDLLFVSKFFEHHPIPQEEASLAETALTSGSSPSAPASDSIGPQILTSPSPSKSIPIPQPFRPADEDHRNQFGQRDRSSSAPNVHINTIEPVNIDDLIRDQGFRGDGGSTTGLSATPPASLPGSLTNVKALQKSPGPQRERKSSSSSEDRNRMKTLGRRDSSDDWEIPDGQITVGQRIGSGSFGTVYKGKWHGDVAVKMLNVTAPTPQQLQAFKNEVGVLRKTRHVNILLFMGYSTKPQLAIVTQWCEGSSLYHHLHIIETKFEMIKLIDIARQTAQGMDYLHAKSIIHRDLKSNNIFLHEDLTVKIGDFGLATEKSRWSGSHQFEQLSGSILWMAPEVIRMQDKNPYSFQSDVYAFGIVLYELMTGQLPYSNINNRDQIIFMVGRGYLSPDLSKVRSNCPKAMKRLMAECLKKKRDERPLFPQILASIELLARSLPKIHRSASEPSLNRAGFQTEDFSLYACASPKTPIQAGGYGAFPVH
T24 sequence (O75116 whole entry): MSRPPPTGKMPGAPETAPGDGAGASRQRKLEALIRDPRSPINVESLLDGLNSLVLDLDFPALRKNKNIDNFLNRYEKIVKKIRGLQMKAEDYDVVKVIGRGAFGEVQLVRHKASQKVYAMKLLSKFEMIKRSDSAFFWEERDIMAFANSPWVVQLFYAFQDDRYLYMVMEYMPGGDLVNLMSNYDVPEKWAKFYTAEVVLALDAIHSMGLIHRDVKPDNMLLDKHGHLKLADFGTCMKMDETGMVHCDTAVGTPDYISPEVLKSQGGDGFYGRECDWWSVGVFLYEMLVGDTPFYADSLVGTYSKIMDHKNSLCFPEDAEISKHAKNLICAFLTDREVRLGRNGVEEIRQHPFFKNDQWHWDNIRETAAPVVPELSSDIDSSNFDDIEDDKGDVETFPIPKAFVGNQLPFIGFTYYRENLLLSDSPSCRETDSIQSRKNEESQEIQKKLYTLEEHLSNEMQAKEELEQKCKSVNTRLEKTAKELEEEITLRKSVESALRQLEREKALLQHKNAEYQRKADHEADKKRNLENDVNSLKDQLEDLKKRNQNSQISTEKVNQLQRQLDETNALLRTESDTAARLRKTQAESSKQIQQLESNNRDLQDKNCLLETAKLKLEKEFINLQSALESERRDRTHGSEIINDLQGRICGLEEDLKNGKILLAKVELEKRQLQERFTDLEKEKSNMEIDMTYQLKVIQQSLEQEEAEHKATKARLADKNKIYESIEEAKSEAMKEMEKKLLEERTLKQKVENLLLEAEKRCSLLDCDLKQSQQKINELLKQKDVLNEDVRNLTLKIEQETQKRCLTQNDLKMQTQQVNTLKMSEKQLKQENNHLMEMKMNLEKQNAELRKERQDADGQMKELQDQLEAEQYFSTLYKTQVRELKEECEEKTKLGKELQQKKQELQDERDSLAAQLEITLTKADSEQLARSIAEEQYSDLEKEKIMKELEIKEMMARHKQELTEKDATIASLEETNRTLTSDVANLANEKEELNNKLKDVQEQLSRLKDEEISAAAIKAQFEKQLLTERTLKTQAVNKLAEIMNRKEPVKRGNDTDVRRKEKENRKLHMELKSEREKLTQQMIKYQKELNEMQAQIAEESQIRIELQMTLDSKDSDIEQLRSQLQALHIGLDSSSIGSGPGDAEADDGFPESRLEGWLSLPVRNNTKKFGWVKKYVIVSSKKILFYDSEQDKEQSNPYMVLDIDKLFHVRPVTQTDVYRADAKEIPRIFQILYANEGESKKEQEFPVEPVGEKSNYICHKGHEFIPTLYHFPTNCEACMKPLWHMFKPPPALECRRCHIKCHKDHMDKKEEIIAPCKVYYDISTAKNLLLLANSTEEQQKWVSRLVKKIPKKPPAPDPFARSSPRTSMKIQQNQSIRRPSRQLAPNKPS
T4 sequence (Q6PHR2 whole entry): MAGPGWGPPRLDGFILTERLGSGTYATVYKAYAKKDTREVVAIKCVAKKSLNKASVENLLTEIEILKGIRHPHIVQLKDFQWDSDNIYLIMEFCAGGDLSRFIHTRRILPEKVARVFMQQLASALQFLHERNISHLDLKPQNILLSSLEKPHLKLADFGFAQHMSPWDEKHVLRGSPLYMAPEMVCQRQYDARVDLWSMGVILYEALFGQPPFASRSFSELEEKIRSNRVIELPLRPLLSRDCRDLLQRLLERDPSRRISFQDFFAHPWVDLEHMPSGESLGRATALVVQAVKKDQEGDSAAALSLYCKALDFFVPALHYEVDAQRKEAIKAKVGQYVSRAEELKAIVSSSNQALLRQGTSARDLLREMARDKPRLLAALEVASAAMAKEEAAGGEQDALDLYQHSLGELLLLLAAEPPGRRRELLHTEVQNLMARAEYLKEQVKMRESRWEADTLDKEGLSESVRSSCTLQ

SMILES: Cc1cc(Nc2ccc(F)c(CC3(C(=O)N4CCC(F)(CN5CCN(c6ccc(N7CCC(=O)NC7=O)cn6)CC5)CC4)CCN(Cc4cccc(Cl)c4F)CC3)n2)n[nH]1 [SK5527]
- remaining binding at 0.1 µM ([1]; 100 nM): 68%
- remaining binding at 1 µM ([1]; 1000 nM): 19%
- remaining binding at 0.1 µM (CDK4-cyclinD1; 100 nM): 100%
- remaining binding at 1 µM (CDK4-cyclinD1; 1000 nM): 87%
- remaining binding at 0.1 µM (NEK5; 100 nM): 100%
- remaining binding at 1 µM (NEK5; 1000 nM): 100%
- remaining binding at 0.1 µM (ULK3; 100 nM): 85%
- remaining binding at 1 µM (ULK3; 1000 nM): 86%
- remaining binding at 0.1 µM (CAMK1B; 100 nM): 100%
- remaining binding at 1 µM (CAMK1B; 1000 nM): 100%
- remaining binding at 0.1 µM (AAK1; 100 nM): 100%
- remaining binding at 1 µM (AAK1; 1000 nM): 92%
- remaining binding at 0.1 µM (CHEK2; 100 nM): 97%
- remaining binding at 1 µM (CHEK2; 1000 nM): 89%
- remaining binding at 0.1 µM (CSF1R; 100 nM): 97%
- remaining binding at 1 µM (CSF1R; 1000 nM): 90%
- remaining binding at 0.1 µM (KIT-autoinhibited; 100 nM): 94%
- remaining binding at 1 µM (KIT-autoinhibited; 1000 nM): 84%
- remaining binding at 0.1 µM (ERK2; 100 nM): 100%
- remaining binding at 1 µM (ERK2; 1000 nM): 97%
- remaining binding at 0.1 µM (NEK4; 100 nM): 72%
- remaining binding at 1 µM (NEK4; 1000 nM): 65%
- remaining binding at 0.1 µM (MET(Y1235D); 100 nM): 86%
- remaining binding at 1 µM (MET(Y1235D); 1000 nM): 100%
- remaining binding at 0.1 µM (MERTK; 100 nM): 90%
- remaining binding at 1 µM (MERTK; 1000 nM): 54%
- remaining binding at 0.1 µM (ACVR2A; 100 nM): 100%
- remaining binding at 1 µM (ACVR2A; 1000 nM): 98%
- remaining binding at 0.1 µM (PRKCI; 100 nM): 92%
- remaining binding at 1 µM (PRKCI; 1000 nM): 76%
- remaining binding at 0.1 µM (PIK3CA(E545K); 100 nM): 93%
- remaining binding at 1 µM (PIK3CA(E545K); 1000 nM): 71%
- remaining binding at 0.1 µM (LKB1; 100 nM): 82%
- remaining binding at 1 µM (LKB1; 1000 nM): 83%
- remaining binding at 0.1 µM (PIK3CA(Q546K); 100 nM): 81%
- remaining binding at 1 µM (PIK3CA(Q546K); 1000 nM): 78%
- remaining binding at 0.1 µM (PAK6; 100 nM): 100%
- remaining binding at 1 µM (PAK6; 1000 nM): 100%
- remaining binding at 0.1 µM (CSNK2A1; 100 nM): 90%
- remaining binding at 1 µM (CSNK2A1; 1000 nM): 69%
- remaining binding at 0.1 µM (TGFBR1; 100 nM): 100%
- remaining binding at 1 µM (TGFBR1; 1000 nM): 100%
- remaining binding at 0.1 µM (MARK2; 100 nM): 91%
- remaining binding at 1 µM (MARK2; 1000 nM): 62%
- remaining binding at 0.1 µM (KIT(D816V); 100 nM): 93%
- remaining binding at 1 µM (KIT(D816V); 1000 nM): 97%
- remaining binding at 0.1 µM (ROCK2; 100 nM): 100%
- remaining binding at 1 µM (ROCK2; 1000 nM): 45%
- remaining binding at 0.1 µM (ACVRL1; 100 nM): 100%
- remaining binding at 1 µM (ACVRL1; 1000 nM): 100%
- remaining binding at 0.1 µM (MST3; 100 nM): 100%
- remaining binding at 1 µM (MST3; 1000 nM): 100%
- remaining binding at 0.1 µM (STK33; 100 nM): 100%
- remaining binding at 1 µM (STK33; 1000 nM): 97%
- remaining binding at 0.1 µM (NIK; 100 nM): 100%
- remaining binding at 1 µM (NIK; 1000 nM): 88%
- remaining binding at 0.1 µM (RIPK1; 100 nM): 100%
- remaining binding at 1 µM (RIPK1; 1000 nM): 86%
- remaining binding at 0.1 µM (BRAF(V600E); 100 nM): 100%
- remaining binding at 1 µM (BRAF(V600E); 1000 nM): 100%
- remaining binding at 0.1 µM (ZAK; 100 nM): 77%
- remaining binding at 1 µM (ZAK; 1000 nM): 85%
- remaining binding at 0.1 µM (YSK4; 100 nM): 72%
- remaining binding at 1 µM (YSK4; 1000 nM): 72%
- remaining binding at 0.1 µM (PHKG1; 100 nM): 99%
- remaining binding at 1 µM (PHKG1; 1000 nM): 100%
- remaining binding at 0.1 µM (CSNK1G2; 100 nM): 98%
- remaining binding at 1 µM (CSNK1G2; 1000 nM): 93%
